From PMC11620503 (Antimicrobial Agents and Chemotherapy, 2024)
≈ marks a conversion by molar mass, not a printed value. Read-outs that look alike come from different tables or passages of the source.

How the values were obtained:
96 P. aeruginosa = test: MIC, broth microdilution; format: cell-based, Pseudomonas aeruginosa; details: Pseudomonas aeruginosa (96)
[1] = system: E. coli CDC-149 (NDM-7), PBP3 mutations; test: MIC, broth microdilution; format: cell-based; details: Escherichia coli
[2] = system: MEM-nonsusceptible Enterobacterales with serine-carbapenemases; test: MIC, broth microdilution; format: cell-based; details: MEM-nonsusceptible Enterobacterales with serine-carbapenemases (42), CDC AR Bank
[3] = system: 55 isolates of A. baumannii; test: MIC, broth microdilution; format: cell-based, Acinetobacter baumannii; details: Acinetobacter baumannii (55), fixed concentration (μg/mL) in label
[4] = system: E. coli CDC-137 (NDM-6), PBP3 mutations; test: MIC, broth microdilution; format: cell-based; details: Escherichia coli, fixed BLI concentration (μg/mL) in parentheses in label
[5] = system: E. coli CDC-119 (NDM-1), PBP3 mutations; test: MIC, broth microdilution; format: cell-based; details: Escherichia coli
[6] = system: Cefepime/taniborbactam-nonsusceptible Enterobacterales with metallo-carbapenemases (25); test: MIC, broth microdilution; format: cell-based; details: CDC AR Bank; for MIC50 / MIC90: fixed concentration (μg/mL) in label
[7] = system: serine-carbapenemase-producing isolates (Enterobacterales); test: MIC, broth microdilution; format: cell-based; details: Enterobacterales with serine-carbapenemases (61), CDC AR Bank
[8] = system: E. coli CDC-150 (NDM-5), PBP3 mutations; test: MIC, broth microdilution; format: cell-based; details: Escherichia coli, fixed BLI concentration (μg/mL) in parentheses in label
[9] = system: MEM-nonsusceptible Enterobacterales with metallo-carbapenemases; test: MIC, broth microdilution; format: cell-based; details: MEM-nonsusceptible Enterobacterales with metallo-carbapenemases (41), CDC AR Bank; for MIC50 / MIC90: fixed concentration (μg/mL) in label; for MIC50: read-out: MIC50; for MIC90: read-out: MIC90
[10] = system: Enterobacterales (154), CDC AR Bank; test: MIC, broth microdilution; format: cell-based
[11] = system: E. coli CDC-162 (NDM-7), PBP3 mutations; test: MIC, broth microdilution; format: cell-based; details: Escherichia coli
[12] = system: MEM-nonsusceptible Enterobacterales; test: MIC, broth microdilution; format: cell-based; details: MEM-nonsusceptible Enterobacterales (92), CDC AR Bank
[13] = system: E. coli CDC-151 (NDM-5), PBP3 mutations; test: MIC, broth microdilution; format: cell-based; details: Escherichia coli, fixed BLI concentration (μg/mL) in parentheses in label
[14] = system: E. coli CDC-435 (NDM-1), PBP3 mutations; test: MIC, broth microdilution; format: cell-based; details: Escherichia coli, fixed BLI concentration (μg/mL) in parentheses in label
[15] = system: MEM-, imipenem/relebactam-, and ceftolozane/tazobactam-nonsusceptible P. aeruginosa; test: MIC, broth microdilution; format: cell-based, Pseudomonas aeruginosa; details: for MIC50 / MIC90: Pseudomonas aeruginosa; for MIC50: read-out: MIC50; for MIC90: read-out: MIC90
[16] = system: Acinetobacter baumannii (46); test: MIC, broth microdilution; format: cell-based
[17] = system: MBL-producing isolates (Enterobacterales); test: MIC, broth microdilution; format: cell-based; details: Enterobacterales with metallo-carbapenemases (47), CDC AR Bank, fixed concentration (μg/mL) in label
[18] = system: Clostridium perfringens ATCC 13124; test: microbe, parasite or virus in culture; format: cell-based; details: ATCC13124
[19] = system: Clostridioides difficile ATCC BAA-1870; test: MIC, agar dilution, reference strains of anaerobic bacteria; format: cell-based; details: ATCCBAA1870
Atopobium rimae KUB3014 = test: as above; format: cell-based; details: Lancefieldella rimae
[20] = system: Bacteroides fragilis ATCC 25285; test: as above; format: cell-based; details: ATCC25285
[21] = system: Bacteroides fragilis KUB2982; test: as above; format: cell-based
[22] = system: Peptostreptococcus anaerobius ATCC 27337; test: as above; format: cell-based; details: ATCC27337
[23] = system: Bacteroides fragilis KUB2983; test: as above; format: cell-based
[24] = system: Bacteroides thetaiotaomicron ATCC 29741; test: as above; format: cell-based; details: ATCC29741
[25] = system: Clostridioides difficile ATCC 43255; test: as above; format: cell-based; details: ATCC43255
[26] = system: Prevotella intermedia KUB2991; test: as above; format: cell-based
[27] = system: Clostridioides difficile ATCC BAA-1803; test: as above; format: cell-based; details: ATCCBAA1803
[28] = system: Prevotella melaninogenica KUB3005; test: as above; format: cell-based
Parvimonas micra KUB3000 = test: as above; format: cell-based
[29] = system: Clostridioides difficile ATCC 700057; test: as above; format: cell-based; details: ATCC700057
[30] = system: Bulleidia extructa KUB3013; test: as above; format: cell-based
[31] = system: Bacteroides ovatus KUB3009; test: as above; format: cell-based
[32] = system: Prevotella buccae KUB2992; test: as above; format: cell-based; details: Segatella buccae
[33] = system: Prevotella histicola KUB2989; test: as above; format: cell-based
[34] = system: Peptoniphilus asaccharolyticus ATCC 14963; test: as above; format: cell-based; details: ATCC14963
[35] = system: Eggerthella lenta ATCC 43055; test: as above; format: cell-based; details: ATCC43055
Olsenella uli KUB3012 = test: as above; format: cell-based
[36] = system: Propionibacterium acnes ATCC 11827; test: as above; format: cell-based; details: Cutibacterium acnes, ATCC11827
[37] = system: Bacteroides thetaiotaomicron KUB2984; test: as above; format: cell-based
[38] = system: Actinomyces odontolyticus ATCC 17929; test: as above; format: cell-based; details: Schaalia odontolytica, ATCC17929
[39] = system: Fusobacterium nucleatum ATCC 25586; test: as above; format: cell-based; details: ATCC25586
[40] = system: Fusobacterium varium ATCC 27725; test: as above; format: cell-based; details: ATCC27725
[41] = system: Finegoldia magna ATCC 29328; test: as above; format: cell-based; details: ATCC29328
[42] = in humans; cited from earlier work
[43] = CLSI breakpoints, marked c: breakpoints for β-lactam alone
[44] = fixed concentration (μg/mL) in label, read-out: MIC50
[45] = fixed concentration (μg/mL) in label, read-out: MIC90
[46] = fixed concentration (μg/mL) in label
[47] = Imipenem/relebactam-nonsusceptible Pseudomonas aeruginosa (43), CLSI breakpoints, marked c: breakpoints for β-lactam alone
[48] = MEM-nonsusceptible Pseudomonas aeruginosa (76), CLSI breakpoints, marked c: breakpoints for β-lactam alone
[49] = Imipenem/relebactam-nonsusceptible Pseudomonas aeruginosa (43), fixed concentration (μg/mL) in label
[50] = MEM-nonsusceptible Pseudomonas aeruginosa (76), fixed concentration (μg/mL) in label

Compound: C[C@H]1[C@H](NC(=O)/C(=N\OC(C)(C)C(=O)O)c2csc(N)n2)C(=O)N1S(=O)(=O)O [ATM, aztreonam]
- CLSI MIC interpretation R (resistant) (96 P. aeruginosa; [43]): 47.9%
- CLSI MIC interpretation S (susceptible) (96 P. aeruginosa; [43]): 39.6%
- MIC50 (96 P. aeruginosa; [44]): 16 µg/mL (≈ 36.7 µM)
- MIC90 (96 P. aeruginosa; [45]): > 64 µg/mL
- MIC [1]: 0.5 µg/mL (≈ 1.15 µM)
- CLSI MIC interpretation I (intermediate) [2, 43]: 2.4%
- CLSI MIC interpretation R (resistant) [2, 43]: 92.9%
- CLSI MIC interpretation S (susceptible) [2, 43]: 4.8%
- MIC50 [2, 44]: > 64 µg/mL
- MIC90 [2, 45]: > 64 µg/mL
- MIC50 ([3]; read-out: MIC50): 64 µg/mL (≈ 147 µM)
- MIC90 ([3]; read-out: MIC90): > 64 µg/mL
- MIC [4]: > 64 µg/mL
- MIC [5]: > 64 µg/mL
- CLSI MIC interpretation I (intermediate) [6, 43]: 0%
- CLSI MIC interpretation R (resistant) [6, 43]: 96%
- CLSI MIC interpretation S (susceptible) [6, 43]: 4%
- MIC50 [6]: > 64 µg/mL
- MIC90 [6]: > 64 µg/mL
- CLSI MIC interpretation I (intermediate) [7, 43]: 3.3%
- CLSI MIC interpretation R (resistant) [7, 43]: 85.2%
- CLSI MIC interpretation S (susceptible) [7, 43]: 11.5%
- MIC50 [7, 44]: > 64 µg/mL
- MIC90 [7, 45]: > 64 µg/mL
- MIC [8]: 32 µg/mL (≈ 73.5 µM)
- CLSI MIC interpretation I (intermediate) [9, 43]: 0%
- CLSI MIC interpretation R (resistant) [9, 43]: 85.4%
- CLSI MIC interpretation S (susceptible) [9, 43]: 14.6%
- MIC50 [9]: > 64 µg/mL
- MIC90 [9]: > 64 µg/mL
- CLSI MIC interpretation I (intermediate) [10, 43]: 2.6%
- CLSI MIC interpretation R (resistant) [10, 43]: 80.5%
- CLSI MIC interpretation S (susceptible) [10, 43]: 16.9%
- MIC50 [10, 46]: > 64 µg/mL
- MIC90 [10, 46]: > 64 µg/mL
- MIC [11]: > 64 µg/mL
- CLSI MIC interpretation I (intermediate) [12, 43]: 1.1%
- CLSI MIC interpretation R (resistant) [12, 43]: 90.2%
- CLSI MIC interpretation S (susceptible) [12, 43]: 8.7%
- MIC50 [12, 44]: > 64 µg/mL
- MIC90 [12, 45]: > 64 µg/mL
- MIC [13]: 32 µg/mL (≈ 73.5 µM)
- MIC [14]: > 64 µg/mL
- CLSI MIC interpretation (%) I ([15]; I, intermediate (including susceptible dose-dependent), CLSI breakpoints, last subgroup of Table 2): 8.9%
- CLSI MIC interpretation I (intermediate) [15, 47]: 9.3%
- CLSI MIC interpretation R (resistant) [15, 47]: 60.5%
- CLSI MIC interpretation S (susceptible) [15, 47]: 30.2%
- CLSI MIC interpretation R (resistant) [15, 48]: 56.6%
- CLSI MIC interpretation S (susceptible) [15, 48]: 30.3%
- MIC50 [15, 49]: 32 µg/mL
- MIC90 [15, 49]: > 64 µg/mL
- MIC50 [15, 50]: 32 µg/mL (≈ 73.5 µM)
- MIC90 [15, 50]: > 64 µg/mL
- MIC50 ([15]; Table 2, broth microdilution): 32 µg/mL (≈ 73.5 µM)
- MIC90 ([15]; Table 2, broth microdilution): > 64 µg/mL
- CLSI MIC interpretation (%) R ([15]; R, resistant, CLSI breakpoints, last subgroup of Table 2): 62.2%
- CLSI MIC interpretation (%) S ([15]; S, susceptible, CLSI breakpoints, last subgroup of Table 2): 28.9%

Compound: CO/N=C(\C(=O)N[C@@H]1C(=O)N2C(C(=O)[O-])=C(C[N+]3(C)CCCC3)CS[C@H]12)c1csc(N)n1 [FEP, cefepime]
- MIC [1]: > 64 µg/mL
- MIC [4]: > 64 µg/mL
- MIC [5]: > 64 µg/mL
- MIC50 [6]: > 64 µg/mL
- MIC90 [6]: > 64 µg/mL
- CLSI MIC interpretation I (intermediate) [16, 43]: 4.3%
- CLSI MIC interpretation R (resistant) [16, 43]: 95.7%
- CLSI MIC interpretation S (susceptible) [16, 43]: 0%
- MIC50 [16, 46]: 64 µg/mL (≈ 133 µM)
- MIC90 [16, 46]: > 256 µg/mL
- MIC [8]: > 64 µg/mL
- MIC50 [9]: > 64 µg/mL
- MIC90 [9]: > 64 µg/mL
- MIC [11]: > 64 µg/mL
- MIC50 ([17]; read-out: MIC50): > 64 µg/mL
- MIC90 ([17]; read-out: MIC90): > 64 µg/mL
- MIC [13]: > 64 µg/mL
- MIC [14]: > 64 µg/mL

Compound: Cc1ncc([N+](=O)[O-])n1CCO [Metronidazole, metronidazole]
- MIC [18]: 2 µg/mL (≈ 11.7 µM)
- MIC [19]: 1 µg/mL (≈ 5.84 µM)
- MIC (Atopobium rimae KUB3014): 1 µg/mL (≈ 5.84 µM)
- MIC [20]: 1 µg/mL (≈ 5.84 µM)
- MIC [21]: 2 µg/mL (≈ 11.7 µM)
- MIC [22]: 0.5 µg/mL (≈ 2.92 µM)
- MIC [23]: 0.5 µg/mL (≈ 2.92 µM)
- MIC [24]: 2 µg/mL (≈ 11.7 µM)
- MIC [25]: 1 µg/mL (≈ 5.84 µM)
- MIC [26]: 1 µg/mL (≈ 5.84 µM)
- MIC [27]: 2 µg/mL (≈ 11.7 µM)
- MIC [28]: 1 µg/mL (≈ 5.84 µM)
- MIC (Parvimonas micra KUB3000): 0.5 µg/mL (≈ 2.92 µM)
- MIC [29]: 0.5 µg/mL (≈ 2.92 µM)
- MIC [30]: 2 µg/mL (≈ 11.7 µM)
- MIC [31]: 1 µg/mL (≈ 5.84 µM)
- MIC [32]: 2 µg/mL (≈ 11.7 µM)
- MIC [33]: 2 µg/mL (≈ 11.7 µM)
- MIC [34]: 1 µg/mL (≈ 5.84 µM)
- MIC [35]: 1 µg/mL (≈ 5.84 µM)
- MIC (Olsenella uli KUB3012): 4 µg/mL (≈ 23.4 µM)
- MIC [36]: > 64 µg/mL
- MIC [37]: 1 µg/mL (≈ 5.84 µM)
- MIC [38]: > 64 µg/mL
- MIC [39]: ≤ 0.125 µg/mL
- MIC [40]: 0.5 µg/mL (≈ 2.92 µM)
- MIC [41]: 2 µg/mL (≈ 11.7 µM)

Compound: O=C(O)c1c(F)ccc2c1OB(O)[C@@H]1C[C@H]21 [xeruborbactam]
- protein binding rate [42]: over 90%
